A short description of series [1]: staining test for dentine-sealing effect (rhodamine, colorimetry). Here is the method:
The components were produced as described in example 1.
After the application of the gels, a staining test was used to check if a dentine-sealing effect occurred. Acids that were insoluble at the requisite conditions were not tested further.
Principle of the staining test: The samples are measured by colorimetry on the coated and uncoated side after staining with 1% rhodamine solution using a Spectraflash 600 Plus two-channel spectrometer with the CIE L*a*b* system and aperture 3 mm X4SAV. The difference in colour is reported as the delta value (colour difference).
Tris buffer (pH value: 7.2 to 9.0) was used in the Ca gel. A sodium acetate buffer (pH value: 3.7 to 5.7) was used in the P gel.

A short description of series [2]: solubility and appearance of pre-treatment, calcium and phosphate solutions made with the acid. Here is the method: For component A containing phosphate ions, a solution containing 29.5 g NaH2PO4, 33 g Olaflur, and 27.0 g lactic acid was produced. […] A total of 24 ml of the solution and 6 g glycerol and 10 g of 300 Bloom pork rind gelatine were processed while heating to form a viscous solution. A small amount of liquid was placed in a template with a wall thickness of 500 μm and exposed to 2 bar of pressure. After solidification, the strips were removed from the template and cut into 1×1 cm squares.
For component B containing calcium ions, a calcium chloride solution containing 29.4 g calcium chloride dihydrate and 6.3 g lactic acid was prepared. […] The solution was topped up to 200 ml with de-ionized water. In order to produce the gel, 21.6 g of the solution and 8.24 g glycerol and 8 g calcium sulfate and 13.6 g 300 Bloom gelatine were mixed and heated. The liquid gel was then spread with a squeegee to a thickness of 1 mm or pressed in a template with a wall thickness of 1 mm. After solidification, the strips were cut into 1×1 cm squares. For the pre-treatment solution (mouthwash), a 0.1 mol Tris buffer was added to a 1 molar calcium chloride solution and the pH was adjusted to 9.0.

Where [3] appears, read: colour difference coated vs uncoated side after staining with 1% rhodamine solution, CIE L*a*b*.
[4] abbreviates: as E1, P gel combined with acetic acid-Ca gel.

Structures are written as SMILES.

Turning to `O=C1O[C@H]([C@@H](O)CO)C(O)=C1O` [Ascorbic acid], the “deposition after application of the kit” value in series [1] is “show deposition”. Further, the “Functional test (delta E)” value in series [1] (setting [3]) is listed as 56.64 ± 9.85.
The corresponding values for `N[C@@H](CC(=O)O)C(=O)O` [Aspartic acid] are “show deposition” and 45.96 ± 2.63.
Consider `O=C(O)CO` [Glycolic acid], for which, in series [1], the “deposition after application of the kit” value is recorded as “show deposition”. Further, in series [1] (setting [4]), the “Functional test (delta E)” value came out at 35.32 ± 4.19.
Turning to `CC(O)C(=O)O` (stereo not drawn) [Lactic acid], the “deposition after application of the kit” value in series [1] was “show deposition”. In series [1] (setting [3]), the “Functional test (delta E)” value amounted to 49.83 ± 4.02.
Consider `O=C(O)CC(O)C(=O)O` (stereo not drawn) [Malic acid], for which the “solubility of the calcium salt of the acid” value in series [2] is given as “sufficiently soluble”. The “Pre-treatment solution: solubility/appearance” value in series [2] (pH 8.5) is “precipitation”; in series [2] (pH 9.02) it was “pH 9.02 clear”; in series [2] (pH 9.53), “pH 9.53 clear”. In addition, the “deposition after application of the kit” value in series [1] is “show deposition”. Moreover, the “Functional test (delta E)” value in series [1] (setting [3]) amounted to 42.41 ± 5.39.
As for `O=C(O)c1ccccc1O` [Salicylic acid], in series [2], the “solubility of the acid (merged cell spanning the solution columns)” value is reported as “insoluble”.
In the case of `O=C(O)c1ccc(C(=O)O)c(C(=O)O)c1` [Trimellitic acid], the “Ca gel solution: solubility/appearance” value in series [2] is reported as “precipitation”. Besides, the “Functional test (delta E)” value in series [1] (setting [4]) is on record as 42.05 ± 11.24.
Turning to `O=C(O)C(CO)c1ccccc1` (stereo not drawn) [Tropic acid], the “solubility of the acid (merged cell spanning the solution columns)” value in series [2] is on record as “insoluble”.

Source of the values: patent publication US20150072315A1, “Formulations and kit for biometric deposition of apatite on teeth” (Heraeus Kulzer GmbH, priority 2013, published 2015).
